# Patent US20200179319A1, “PHARMACEUTICAL FORMULATIONS AND THEIR USE” (Signum Biosciences, Inc., priority 2016, published 2020)
# Key:
# Type in all cases: physicochemical
# [1] = Stability Study 1: storage stability of a formulation comprising the disodium salt, HPLC; conditions: 25° C., heading 30° C.; for % weight in formulation after 1 month: after 1 month storage; for % weight in formulation after 3 months: after 3 months storage; for % weight in formulation after 6 months: after 6 months storage; for % weight in formulation after 9 months: after 9 months storage; for Initial (% weight of formulation): formulation comprising the disodium salt
# Experimental: The stability of a formulation comprising the disodium salt of […] In each case, the percentage of 4-(((R)-1-carboxy-2-(((2E,6E)-3,7,11-trimethyldodeca-2,6,10-trien-1-yl)thio)ethyl)amino)-4-oxobutanoic acid remaining at each time point was determined by use of HPLC.
# [2] = Stability Study 2 conducted at 5° C.: storage stability of a formulation comprising the disodium salt, HPLC; conditions: for weight percentage of the component, 1 months: 1 month at 5° C.; for weight percentage of the component, 2 months: 2 months at 5° C.; for weight percentage of the component, 3 months: 3 months at 5° C.; for weight percentage of the component, 6 months: 6 months at 5° C.; for weight percentage of the component, 9 months: 9 months at 5° C.; for weight percentage of the component, 12 months: 12 months at 5° C.; for weight percentage of the component, 18 months: 18 months at 5° C.; for weight percentage of the component, 24 months: 24 months at 5° C.; for weight percentage of the component, Initial: storage at 5° C.
# Experimental: The stability of a formulation comprising the disodium salt of 4-(((R)-1-carboxy-2-(((2E,6E)-3,7,11-trimethyldodeca-2,6,10-trien-1-yl)thio)ethyl)amino)-4-oxobutanoic acid was determined after storage at 5° C. for a period of 1 month, 2 months, 3 months, 6 months, 9 months, 12 months, 18 months, and 24 months. In each case, the percentage of 4-(((R)-1-carboxy-2-(((2E,6E)-3,7,11-trimethyldodeca-2,6,10-trien-1-yl)thio)ethyl)amino)-4-oxobutanoic acid remaining at each time point was determined by use of HPLC. Each of the percentages in the table below are expressed at the weight percentage of the component as compared to the total weight of the composition.
# [3] = Screening Study (Example 5): sulfoxide formed in API solution with each agent, HPLC; conditions: for (% area sulfoxide for each agent/% area sulfoxide in Blank) / Average % area sulfoxide for 3 runs per agent: 24 hours exposed to air at room temperature, not protected from light; for % area sulfoxide relative to % area Control: Control: no agent, stored at 5° C. and protected from light; for Average % area sulfoxide for 3 runs per agent: pH 7.4 to 7.5 buffer, API disodium salt solution plus agent
# Experimental: A buffer solution was prepared by adding 0.72 g of Na2HPO4, 0.24 g KH2PO4 and 500 mL of deionized water into a container and mixing. The pH of the mixture was adjusted to 7.4 to 7.5 using NaOH and H3PO4.
# (§1) A solution of each agent in the table below was prepared by adding 500 mg or each agent into a 25 mL volumetric flask and filling the flask to volume by the addition of the prepared buffer solution.
# A 6% solution of API was prepared by adding 3.0 g the disodium salt of 4-(((R)-1-carboxy-2-(((2E,6E)-3,7,11-trimethyldodeca-2,6,10-trien-1-yl)thio)ethyl)amino)-4-oxobutanoic acid to a 50 mL volumetric flask filling the flask to volume by the addition of argon-sparged methanol, followed by mixing.
# (§2) A screen was performed for each agent as follows: (1) 2.5 mL of the stock solution of API and 2.5 mL of each agent was added into scintillation vial, the vial was capped and the contents were mixed (repeated three times for each agent); and (2) allowing each resulting mixture to sit for 24 hours exposed to air at room temperature and not protected from light. A blank solution was prepared (3×) by adding buffer solution into the 100 mL volumetric flask in place of the agent and was stored under the same conditions as the other samples, 24 hours exposed to air at room temperature and not protected from light. After 24 hours, the contents of each vial were transferred to a 100 mL volumetric flask and each volumetric flask was filled to volume by the addition of methanol, and an aliquot of each mixture was removed and analyzed by HPLC.
# (§3) The area of the sulfoxide of 4-(((R)-1-carboxy-2-(((2E,6E)-3,7,11-trimethyldodeca-2,6,10-trien-1-yl)thio)ethyl)amino)-4-oxobutanoic acid produced in each solution was calculated as follows: % area sulfoxide=Rsulfoxide/(Rparent+Rsulfoxide), wherein Rsuffoxide=the area under the response of the sulfoxide in the HPLC trace, and Rparent=the area under the response of 4-(((R)-1-carboxy-2-(((2E,6E)-3,7,11-trimethyldodeca-2,6,10-trien-1-yl)thio)ethyl)amino)-4-oxobutanoic acid in the HPLC trace. The control sample in Table 8 contained no agent, was stored at 5° C. and protected from light.
# [4] = Screening Study (Example 3): sulfoxide formed in API solution with each agent, HPLC; conditions: 24 hours exposed to air at room temperature, not protected from light; for Average % area sulfoxide for 3 runs per agent: API disodium salt solution plus agent
# Experimental: A buffer solution was prepared by adding 0.72 g of Na2HPO4, 0.24 g KH2PO4 and 500 mL of deionized water into a container and mixing.
# as §1
# A 6% solution of API was prepared by adding 3.0 g the disodium salt of 4-(((R)-1-carboxy-2-(((2E,6E)-3,7,11-trimethyldodeca-2,6,10-trien-1-yl)thio)ethyl)amino)-4-oxobutanoic acid to a 50 mL volumetric flask and filling the flask to volume by the addition of methanol, followed by mixing.
# as §2, with “a 100 mL volumetric flask” for “scintillation vial, the vial was capped”, “agent.” for “agent and was stored under the same conditions as the other samples, 24 hours exposed to air at room temperature and not protected from light.”, “hours,” for “hours, the contents of each vial were transferred to a 100 mL volumetric flask and”
# as §3, with “trace.” for “trace. The control sample in Table 8 contained no agent, was stored at 5° C. and protected from light.”
# [5] = API stock in argon-sparged methanol
SMILES,% weight in formulation after 1 month [1] [%],% weight in formulation after 3 months [1] [%],% weight in formulation after 6 months [1] [%],% weight in formulation after 9 months [1] [%],Initial (% weight of formulation) [1] [%],"weight percentage of the component, 1 months [2] [weight percentage]","weight percentage of the component, 2 months [2] [weight percentage]","weight percentage of the component, 3 months [2] [weight percentage]","weight percentage of the component, 6 months [2] [weight percentage]","weight percentage of the component, 9 months [2] [weight percentage]","weight percentage of the component, 12 months [2] [weight percentage]","weight percentage of the component, 18 months [2] [weight percentage]","weight percentage of the component, 24 months [2] [weight percentage]","weight percentage of the component, Initial [2] [weight percentage]","(% area sulfoxide for each agent/% area sulfoxide in Blank) [3, 5]",% area sulfoxide relative to % area Control [3],Average % area sulfoxide for 3 runs per agent [3] [%],% area sulfoxide relative to % area Control [4],(% area sulfoxide for each agent/% area sulfoxide in Blank) [4],Average % area sulfoxide for 3 runs per agent [4] [%],other results
"CC(C)=CCC/C(C)=C/CC/C(C)=C/CSC[C@H](NC(=O)CCC(=O)O)C(=O)O [4-(((R)-1-carboxy-2-(((2E,6E)-3,7,11-trimethyldodeca-2,6,10-trien-1-yl)thio)ethyl)amino)-4-oxobutanoic acid]",2.97,3.13,2.92,2.87,3.09,3.01,3.00,3.10,3.04,3.03,3.06,3.10,3.05,3.09,–,–,–,–,–,–,–
O=C1O[C@H]([C@@H](O)CO)C(O)=C1O [Ascorbic acid],–,–,–,–,–,–,–,–,–,–,–,–,–,–,2.39,1.812,2.771,–,–,–,–
"Cc1cc(C(C)(C)C)c(O)c(C(C)(C)C)c1 [Butylated hydroxytoluene (BHT), Butylated hydroxytoluene]",–,–,–,–,–,–,–,–,–,–,–,–,–,–,1.02,0.227,1.186,0.115,0.97,1.092,–
O=C(CO)[C@@H](O)[C@H](O)[C@H](O)CO [Fructose],–,–,–,–,–,–,–,–,–,–,–,–,–,–,–,–,–,0.146,About 1,1.123,–
COC(=O)c1ccc(O)cc1 [Methylparaben],0.17,0.17,0.17,0.16,0.17,0.17,0.17,0.17,0.18,0.17,0.17,0.17,0.15,0.17,–,–,–,–,–,–,–
CCCOC(=O)c1ccc(O)cc1 [Propylparaben],0.033,0.034,0.032,0.033,0.034,0.032,0.032,0.033,0.032,0.033,0.032,0.033,0.030,0.034,–,–,–,–,–,–,–
O=S([O-])([O-])=S.[Na+].[Na+] [Sodium thiosulfate],–,–,–,–,–,–,–,–,–,–,–,–,–,–,–,0.158,1.117,0.055,0.92,1.032,(% area sulfoxide for each agent/% area sulfoxide in Blank) [3]: 0.96
"CC(C)=CCC/C(C)=C/CC/C(C)=C/C[S+]([O-])C[C@H](NC(=O)CCC(=O)O)C(=O)O (stereo partly drawn) [Sulfoxide of 4-(((R)-1-carboxy-2-(((2E,6E)-3,7,11-trimethyldodeca-2,6,10-trien-1-yl)thio)ethyl)amino)-4-oxobutanoic acid]",0.031,0.113,0.053,0.134,0.037,0.039,0.076,0.112,0.048,0.049,0.050,0.052,0.044,0.037,–,–,–,–,–,–,–
"CC(C)(C)c1cc(O)ccc1O [Tert-butylhydroquinone (TBHQ), Tert-butylhydroquinone]",–,–,–,–,–,–,–,–,–,–,–,–,–,–,7.38,7.587,8.546,–,–,–,–
CC(=O)Oc1c(C)c(C)c2c(c1C)CCC(C)(CCC[C@H](C)CCC[C@H](C)CCCC(C)C)O2 (some centres unmarked) [Vitamin E acetate],–,–,–,–,–,–,–,–,–,–,–,–,–,–,1.01,0.208,1.167,–,–,–,–
O=S([O-])CO.[Na+] [sodium hydroxymethylsulfinate],–,–,–,–,–,–,–,–,–,–,–,–,–,–,–,–,–,0.571,1.37,1.548,–
